Measurements reported in patent US20230123334A1, “AMINO LIPID COMPOUND, PREPARATION METHOD THEREFOR, AND APPLICATION THEREOF” (SHENZHEN SHENXIN BIOTECHNOLOGY CO., LTD., priority 2020, published 2023).

Columns and labels:
HEK293 cells [1] = assay: Preliminary screening as DNA vectors, GFP transfection of HEK293 cells; assay type: cell-based; details: HEK293 cells; lipid/DOPE liposome with 75 ng plasmid DNA (psin-EGFP-IRES-Puro); number of cells expressing GFP divided by total number of nuclei (Hoechst)
Method in brief: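 First, amino lipid and DOPE were vortexed in sodium acetate buffer (pH 5.6) to form liposomes. Next, these were held with 75 ng EGFP plasmid at room temperature for 30 min. Finally, HEK293 cells were added, cultured at 37° C., Hoechst-stained, and GFP+/total nuclei scored by imaging.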

HEK293 cells [2] = assay: Preliminary screening as mRNA vectors, EGFP mRNA transfection of HEK293 cells; assay type: cell-based; details: HEK293 cells, 96-well plates, EGFP mRNA 50 ng per well; percentage of GFP fluorescent cells relative to total number of cells (Hoechst)
Method in brief: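 Screening format: EGFP mRNA transfection (50 ng/well) into HEK293 in 10% FBS-supplemented DMEM. Percent green fluorescent cells, normalised to Hoechst nuclear count, gave the value; Lipofectamine2000 was the reference transfectant.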

SMILES | Absolute DNA transfection efficiency in HEK293 cells (HEK293 cells [1]) | Absolute mRNA transfection efficiency in HEK293 cells (HEK293 cells [2])
CCCCCCCCCCSc1nc(NCCN2CCCCC2)nc(SCCCCCCCCC)n1 [Compound S9S10D4] | 13.3% | 4.1%
CCCCCCCCCCSc1nc(NCCN2CCN(C)CC2)nc(SCCCCCCCCC)n1 [Compound S9S10D5] | 27.6% | 61.4%
CCCCCCCCCCSc1nc(NCCCN(C)C)nc(SCCCCCCCCC)n1 [Compound S9S10D6] | 21.2% | 74.6%
CCCCCCCCCCSc1nc(NCCN(CC)CC)nc(SCCCCCCCCC)n1 [Compound S9S10D7] | 8.3% | 2.8%
CCCCCCCCCCSc1nc(NCCCN2CCOCC2)nc(SCCCCCCCCC)n1 [Compound S9S10D8] | 22.5% | 9.8%
CCCCCCCCCCSc1nc(NCCCN2CCN(C)CC2)nc(SCCCCCCCCC)n1 [Compound S9S10D9] | 34.1% | 46.6%
CCCCCCCCCCSc1nc(NCC2CCN(C)CC2)nc(SCCCCCCCCC)n1 [Compound S9S10D10] | 18.7% | 47.2%
CCCCCCCCCCCSc1nc(NCCN(C)C)nc(SCCCCCCCCC)n1 [Compound S9S11D1] | 9.5% | 3.0%
CCCCCCCCCCCSc1nc(NCCN2CCOCC2)nc(SCCCCCCCCC)n1 [Compound S9S11D2] | 17.3% | 3.3%
CCCCCCCCCCCSc1nc(NCCN2CCCC2)nc(SCCCCCCCCC)n1 [Compound S9S11D3] | 10.0% | 1.9%
CCCCCCCCCCCSc1nc(NCCN2CCCCC2)nc(SCCCCCCCCC)n1 [Compound S9S11D4] | 15.2% | 4.1%
CCCCCCCCCCCSc1nc(NCCN2CCN(C)CC2)nc(SCCCCCCCCC)n1 [Compound S9S11D5] | 11.4% | 48.6%
CCCCCCCCCCCSc1nc(NCCCN(C)C)nc(SCCCCCCCCC)n1 [Compound S9S11D6] | 41.9% | 85.1%
CCCCCCCCCCCSc1nc(NCCN(CC)CC)nc(SCCCCCCCCC)n1 [Compound S9S11D7] | 8.1% | 2.5%
CCCCCCCCCCCSc1nc(NCCCN2CCOCC2)nc(SCCCCCCCCC)n1 [Compound S9S11D8] | 21.8% | 24.4%
CCCCCCCCCCCSc1nc(NCCCN2CCN(C)CC2)nc(SCCCCCCCCC)n1 [Compound S9S11D9] | 8.5% | 49.7%
CCCCCCCCCCCSc1nc(NCC2CCN(C)CC2)nc(SCCCCCCCCC)n1 [Compound S9S11D10] | 32.8% | 88.8%
CCCCCCCCCCCCCCCCCCSc1nc(NCCN(C)C)nc(SCCCCCCCCC)n1 [Compound S9S18D1] | 4.9% | 2.7%
CCCCCCCCCCCCCCCCCCSc1nc(NCCN2CCOCC2)nc(SCCCCCCCCC)n1 [Compound S9S18D2] | 2.3% | 0.0%
CCCCCCCCCCCCCCCCCCSc1nc(NCCN2CCCC2)nc(SCCCCCCCCC)n1 [Compound S9S18D3] | 13.9% | 35.8%
CCCCCCCCCCCCCCCCCCSc1nc(NCCN2CCCCC2)nc(SCCCCCCCCC)n1 [Compound S9S18D4] | 5.5% | 0.6%
CCCCCCCCCCCCCCCCCCSc1nc(NCCN2CCN(C)CC2)nc(SCCCCCCCCC)n1 [Compound S9S18D5] | 4.0% | 22.0%

SMILES | Absolute DNA transfection efficiency in HEK293 cells (HEK293 cells [1]) | Absolute mRNA transfection efficiency in HEK293 cells (HEK293 cells [2])
CCCCCCCCCCCCCCCCCCSc1nc(NCCCN(C)C)nc(SCCCCCCCCC)n1 [Compound S9S18D6] | 1.7% | 11.6%
CCCCCCCCCCCCCCCCCCSc1nc(NCCN(CC)CC)nc(SCCCCCCCCC)n1 [Compound S9S18D7] | 11.8% | 1.9%
CCCCCCCCCCCCCCCCCCSc1nc(NCCCN2CCOCC2)nc(SCCCCCCCCC)n1 [Compound S9S18D8] | 27.0% | 12.4%
CCCCCCCCCCCCCCCCCCSc1nc(NCCCN2CCN(C)CC2)nc(SCCCCCCCCC)n1 [Compound S9S18D9] | 0.0% | 4.0%
CCCCCCCCCCCCCCCCCCSc1nc(NCC2CCN(C)CC2)nc(SCCCCCCCCC)n1 [Compound S9S18D10] | 7.0% | 43.6%
CCCCCCCCCCSc1nc(NCCN(C)C)nc(SCCCCCCCCCC)n1 [Compound S10S10D1] | 7.8% | 0.7%
CCCCCCCCCCSc1nc(NCCN2CCOCC2)nc(SCCCCCCCCCC)n1 [Compound S10S10D2] | 4.0% | 0.4%
CCCCCCCCCCSc1nc(NCCN2CCCC2)nc(SCCCCCCCCCC)n1 [Compound S10S10D3] | 13.6% | 5.0%
CCCCCCCCCCSc1nc(NCCN2CCCCC2)nc(SCCCCCCCCCC)n1 [Compound S10S10D4] | 5.5% | 2.5%
CCCCCCCCCCSc1nc(NCCN2CCN(C)CC2)nc(SCCCCCCCCCC)n1 [Compound S10S10D5] | 14.7% | 45.9%
CCCCCCCCCCSc1nc(NCCCN(C)C)nc(SCCCCCCCCCC)n1 [Compound S10S10D6] | 23.6% | 59.1%
CCCCCCCCCCSc1nc(NCCN(CC)CC)nc(SCCCCCCCCCC)n1 [Compound S10S10D7] | 7.2% | 2.0%
CCCCCCCCCCSc1nc(NCCCN2CCOCC2)nc(SCCCCCCCCCC)n1 [Compound S10S10D8] | 14.0% | 13.8%
CCCCCCCCCCSc1nc(NCCCN2CCN(C)CC2)nc(SCCCCCCCCCC)n1 [Compound S10S10D9] | 13.4% | 51.3%
CCCCCCCCCCSc1nc(NCC2CCN(C)CC2)nc(SCCCCCCCCCC)n1 [Compound S10S10D10] | 18.8% | 87.1%
CCCCCCCCCCCSc1nc(NCCN(C)C)nc(SCCCCCCCCCC)n1 [Compound S10S11D1] | 7.0% | 1.2%
CCCCCCCCCCCSc1nc(NCCN2CCOCC2)nc(SCCCCCCCCCC)n1 [Compound S10S11D2] | 2.2% | 0.6%
CCCCCCCCCCCSc1nc(NCCN2CCCC2)nc(SCCCCCCCCCC)n1 [Compound S10S11D3] | 6.8% | 4.4%
CCCCCCCCCCCSc1nc(NCCN2CCCCC2)nc(SCCCCCCCCCC)n1 [Compound S10S11D4] | 16.7% | 0.0%
CCCCCCCCCCCSc1nc(NCCN2CCN(C)CC2)nc(SCCCCCCCCCC)n1 [Compound S10S11D5] | 8.4% | 61.1%
CCCCCCCCCCCSc1nc(NCCCN(C)C)nc(SCCCCCCCCCC)n1 [Compound S10S11D6] | 8.2% | 83.8%
